Measured values from PMC4786642, “Catch-bond mechanism of the bacterial adhesin FimH” (Nature Communications, 2016).
Read-outs that look alike come from different tables or passages of the source.

Experiments:
FimHL^K12 [1] = target: T1, FimHL^K12 (Escherichia coli, UniProt P08191); test: Equilibrium titration of FimHL with GN-FP-4 (fluorescence); type: binding, E. coli strain K12; parameters: The isolated lectin domains (residues 1–159) of both FimH variants; made in house; host or cells: E. coli HM125 (periplasm)
T1 sequence (P08191 22-180): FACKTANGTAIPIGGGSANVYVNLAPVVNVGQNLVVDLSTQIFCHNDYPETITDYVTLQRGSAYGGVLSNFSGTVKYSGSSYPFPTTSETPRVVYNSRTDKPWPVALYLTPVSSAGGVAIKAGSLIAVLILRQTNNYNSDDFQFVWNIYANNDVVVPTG
Experimental: (§1) The concentration of GN-FP-4 was kept constant at 1.0 or 2.0 nM and the concentration of FimHL was varied between 0 and 10 nM. The samples were equilibrated overnight, and their fluorescence intensities at 520 nm were recorded for 30 s and averaged. The experimental data were fitted according to equation (2).

FimHL^F18 [2] = target: T2, FimHL^F18 (Escherichia coli, UniProt P08191, N91S/S99N/V48A); test: as above; type: binding, E. coli strain F18; parameters: The isolated lectin domains (residues 1–159) of both FimH variants; made in house; host or cells: E. coli HM125 (periplasm), plasmid pfimHL^F18
T2 sequence (P08191 22-180 V48A/N91S/S99N): as the sequence (P08191 22-180) above, with V27A, N70S, S78N counted along it
Experimental: as §1

[3] = system: FimH^F18-Ala188Asp-piliated E. coli; test: Cell tracking on mannose-BSA-coated surfaces, static conditions; type: cell-based; details: in the presence of 200 μM HM; FimH^F18-Ala188Asp-piliated bacteria
Excerpt: (§2) The E. coli KB18 strain[67] was kindly provided by Professor Evgeni Sokurenko and served as host for the generation of recombinant strains. KB18 contains the pPKL114 plasmid, which encodes the whole fim operon with a translational stop linker upstream of the fimH gene. KB18 was co-transformed with the pGB2-24 plasmid, which was isolated from the ELT115 strain and encodes fimH^J96 (kindly provided by Professor Evgeni Sokurenko). Single-nucleotide point mutations were introduced in fimH^J96 using overlap extension PCR following standard molecular techniques to obtain fimH^F18 and fimH^F18-Ala188Asp. The PCR products were cloned into pGB2-24 by the ApaLI and SphI sites, and KB18 was transformed with the resulting plasmid. […]
(§3) Cell tracking was carried out at room temperature under static conditions. […] Time-lapse movies were recorded with a × 20 phase contrast objective using a CMOS digital camera (The Imaging Source Europe, Bremen, Germany) mounted on a Nikon Ti Eclipse inverted microscope and using the NIS Elements Basic Research software (Nikon, Zurich, Switzerland). […] Five to seven independent movies were recorded for each experimental set-up: FimH^F18 or FimH^F18-Ala188Asp on 1M-BSA-coated dishes and FimH^F18 and FimH^F18-Ala188Asp on BSA-coated cell culture dishes. […]

[4] = system: FimH^F18-piliated E. coli; test: as above; type: cell-based; details: in the presence of 200 μM HM; FimH^F18-piliated bacteria
Excerpt: as §2, §3

[5] = system: E. coli piliated with FimH^F18 or FimH^F18-Ala188Asp; test: Cell tracking on mannose-BSA-coated surfaces, static conditions (strain not separated); type: cell-based
Excerpt: The E. coli KB18 strain[67] was kindly provided by Professor Evgeni Sokurenko and served as host for the generation of recombinant strains. KB18 contains the pPKL114 plasmid, which encodes the whole fim operon with a translational stop linker upstream of the fimH gene. KB18 was co-transformed with the pGB2-24 plasmid, which was isolated from the ELT115 strain and encodes fimH^J96 (kindly provided by Professor Evgeni Sokurenko). Single-nucleotide point mutations were introduced in fimH^J96 using overlap extension PCR following standard molecular techniques to obtain fimH^F18 and fimH^F18-Ala188Asp. The PCR products were cloned into pGB2-24 by the ApaLI and SphI sites, and KB18 was transformed with the resulting plasmid.
E. coli strains were grown from frozen stocks in LB medium supplemented with antibiotics (100 μg ml^−1 ampicillin and 25 μg ml^−1 chloramphenicol) until late log phase (OD600 of 1.0–1.2) and diluted to an OD600 of 0.01 before movie acquisition.
Cell culture dishes (35 mm, Corning Inc., Corning, NY) were incubated with 50 μl of 50 μg ml^−1 1M-BSA in 0.02 M bicarbonate buffer for 75 min at 37 °C. The dishes were then washed three times and quenched with 0.1% PBS–BSA to remove unbound 1M-BSA and block remaining sites on the plastic surface to prevent nonspecific binding of bacteria. Controls were prepared by treating cell culture dishes with 0.1% PBS–BSA only. The bacterial suspension was added to the cell culture dishes for microscopy studies.
Cell tracking was carried out at room temperature under static conditions. A bacterial suspension of 50 μl in the late logarithmic growth phase was placed onto the cell culture dishes (diluted to OD600 of 0.01), and a cover slide was placed on top. The delay between sample placement and start of the movie acquisition was about 1 min. Time-lapse movies were recorded with a × 20 phase contrast objective using a CMOS digital camera (The Imaging Source Europe, Bremen, Germany) mounted on a Nikon Ti Eclipse inverted microscope and using the NIS Elements Basic Research software (Nikon, Zurich, Switzerland). Phase contrast images in an ∼5-μm-thick surface layer were taken at four to five frames per second over 5 min. The dead time of movie acquisition was ∼1 min. The resulting images were segmented by creating a projection of the average intensities over all frames to remove the background and by subsequent thresholding using the Maximum Entropy method in Fiji[68] to obtain binary images (examples shown in Supplementary Movies 1 and 2). […] Five to seven independent movies were recorded for each experimental set-up: FimH^F18 or FimH^F18-Ala188Asp on 1M-BSA-coated dishes and FimH^F18 and FimH^F18-Ala188Asp on BSA-coated cell culture dishes. […]

FimH^K12·DsG [6] = type: binding, E. coli strain K12; details: HM, FimH variant K12
Experimental: (§4) Measurements were performed with a stirred 1 × 0.4-cm quartz cuvette. […] The samples were equilibrated overnight, and their fluorescence intensities were recorded for 30 s and averaged.

FimH^K12·DsG [7] = target: T3, FimH^K12·DsG (Escherichia coli, UniProt P08191); type: binding, E. coli strain K12; details: HM, FimH^K12·DsG
T3 construct: those of the corresponding full-length FimH·DsG complexes; made in house; host or cells: E. coli HM125 (periplasm); DsG peptide synthetic, from JPT
T3 sequence (P08191 22-300, other chains not shown): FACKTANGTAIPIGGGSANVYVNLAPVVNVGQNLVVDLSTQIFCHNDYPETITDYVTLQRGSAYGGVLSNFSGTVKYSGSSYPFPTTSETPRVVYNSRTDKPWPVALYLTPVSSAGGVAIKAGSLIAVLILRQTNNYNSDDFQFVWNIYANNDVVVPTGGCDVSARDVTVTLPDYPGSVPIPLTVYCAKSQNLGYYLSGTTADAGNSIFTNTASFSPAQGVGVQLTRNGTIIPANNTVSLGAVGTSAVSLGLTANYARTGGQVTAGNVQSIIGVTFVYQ
Experimental: as §4

FimHL^F18 [8] = target: T2, FimHL^F18; details: HM
FimHL^K12 [9] = target: T1, FimHL^K12; details: HM
FimHL^F18 [10] = target: T2, FimHL^F18
FimH^F18·DsG [11] = target: T4, FimH^F18·DsG (Escherichia coli, UniProt P08191, N91S/S99N/V48A); details: HM; for Kd: FimH^F18·DsG
T4 sequence (P08191 22-300 V48A/N91S/S99N, other chains not shown): as the sequence (P08191 22-300, other chains not shown) above, with V27A, N70S, S78N counted along it
Experimental: as §4

FimH^F18·DsG [12] = target: T4, FimH^F18·DsG; details: for Kd: HM, FimH^F18·DsG
FimH^K12·DsG [13] = target: T3, FimH^K12·DsG; type: binding, E. coli strain K12; details: for Kd: HM, FimH^K12·DsG
Experimental: A constant FimH·DsG concentration of 1 or 2 μM was used. […] The fluorescence traces were globally fitted with Dynafit[59] according to a second-order binding and first-order dissociation reaction.

FimHL^K12 [14] = target: T1, FimHL^K12

O=C(NCCNC(=S)Nc1ccc2c(c1)C(=O)OC21c2ccc(O)cc2Oc2cc(O)ccc21)c1ccc(-c2ccc(O[C@H]3O[C@H](CO)[C@@H](O)[C@H](O)[C@@H]3O)c(Cl)c2)cc1 [GN-FP-4, 3′-Chloro-N-(2-(3-(3′,6′-dihydroxy-3-oxo-3H-spiro[isobenzofuran-1,9′-xanthen]-5-yl)-thioureido)ethyl)-4′-(α-D-mannopyranosyloxy)-biphenyl-4-carboxamide]
Kd (FimHL^K12 [1]; FimHL^K12, equilibrium fluorescence titration, read-out: Kd): 0.07 nM
Kd (FimHL^K12 [1]; FimHL^K12, pH 7.4, 25 °C, read-out: Kd of GN-FP-4 binding): 0.07 nM
fold higher affinity compared to HM (FimHL^K12 [1]; FimHL^K12 and FimHL^F18): 16 fold
Kd (FimHL^F18 [2]): 0.00018 µM

CCCCCCCO[C@H]1O[C@H](CO)[C@@H](O)[C@H](O)[C@@H]1O [HM, n-heptyl α-D-mannoside]
mean velocity on 1M-BSA [3]: 5.9 μm s^−1
mean velocity on 1M-BSA [4]: 6.5 μm s^−1
reduction of permanent attachment to 1M-BSA ([5]; in the presence of 200 μM HM): 85%
reduction of transient attachment to 1M-BSA ([5]; in the presence of 200 μM HM): 75%
transient and permanent attachment to 1M-BSA ([5]; in the presence of HM): significantly reduced
bacterial velocity on 1M-BSA ([5]; upon addition of 100 µM HM): increased
Kd (FimH·DsG)/Kd (FimHL) (FimH^K12·DsG [6]): 3,300
Kd (FimH^K12·DsG [7]; equilibrium titration, read-out: equilibrium dissociation constant (Kd)): 3.6 µM
Kd (FimH^K12·DsG [7]; pH 7.4, 25 °C, read-out: Kd (equilibrium titration; M)): 3.6 µM
Kd (FimHL^F18 [8]; FimHL^F18, displacement of GN-FP-4): 0.003 µM
Kd (FimHL^F18 [8]; read-out: Kd (equilibrium titration; M), FimHL^F18, pH 7.4, 25 °C, from competition equilibria with GN-FP-4): 0.003 µM
Kd (FimHL^K12 [9]; FimHL^K12, displacement of GN-FP-4): 0.0011 µM
Kd (FimHL^K12 [9]; read-out: Kd (equilibrium titration; M), FimHL^K12, pH 7.4, 25 °C, from competition equilibria with GN-FP-4): 0.0011 µM
kon (M^−1 s^−1) (FimHL^F18 [10]; HM binding to FimHL^F18, pH 7.4, 25 °C, calculated with koff and Kd): 1.2±0.4 × 10^5(d) M^−1 s^−1
koff (s^−1) (FimHL^F18 [10]; HM dissociation from FimHL^F18, pH 7.4, 25 °C): 3.5±0.8 × 10^−4 s^−1
Kd (FimH·DsG)/Kd (FimHL) (FimH^F18·DsG [11]; FimH variant F18): 3,300
Kd (FimH^F18·DsG [11]; read-out: Kd (equilibrium titration; M), pH 7.4, 25 °C): 9.9 µM
Kd (FimH^F18·DsG [11]; read-out: equilibrium dissociation constant (Kd), equilibrium titration): 9.9 µM
kon (M^−1 s^−1) (FimH^F18·DsG [12]; HM binding to FimH^F18·DsG, pH 7.4, 25 °C): 4.9±0.1 × 10^6 M^−1 s^−1
koff (s^−1) (FimH^F18·DsG [12]; HM dissociation from FimH^F18·DsG, pH 7.4, 25 °C): 5.8±0.1 × 10^1 s^−1
Kd (FimH^F18·DsG [12]; read-out: Kd (amplitude analysis; M), pH 7.4, 25 °C, stopped-flow amplitudes): 12 µM
Kd (FimH^F18·DsG [12]; read-out: Kd (amplitudes of stopped-flow reactions), amplitude analysis): 12 ± 1 µM
Kd (FimH^F18·DsG [12]; read-out: koff/kon, pH 7.4, 25 °C, ratio of rate constants): 12 µM
kon (M^−1 s^−1) (FimH^K12·DsG [13]; HM binding to FimH^K12·DsG, pH 7.4, 25 °C): 5.0±0.1 × 10^6 M^−1 s^−1
koff (s^−1) (FimH^K12·DsG [13]; HM dissociation from FimH^K12·DsG, pH 7.4, 25 °C): 2.2±0.1 × 10^1 s^−1
Kd (FimH^K12·DsG [13]; pH 7.4, 25 °C, ratio of rate constants, read-out: koff/kon): 4.3 µM
Kd (FimH^K12·DsG [13]; pH 7.4, 25 °C, stopped-flow amplitudes, read-out: Kd (amplitude analysis; M)): 4.2 µM
Kd (FimH^K12·DsG [13]; read-out: Kd (amplitudes of stopped-flow reactions)): 4.2 ± 0.3 µM
kon (M^−1 s^−1) (FimHL^K12 [14]; HM binding to FimHL^K12, pH 7.4, 25 °C, calculated with koff and Kd): 1.8±0.6 × 10^5(d) M^−1 s^−1
koff (s^−1) (FimHL^K12 [14]; HM dissociation from FimHL^K12, pH 7.4, 25 °C): 2.0±0.4 × 10^−4 s^−1
